The values below come from US8633200B2, “Inhibitors of human immunodeficiency virus replication” (priority 2010, dated 2014).

SMILES strings stand for the structures.

The test concerns recombinant NL-Rluc virus (NL4-3 with Renilla Luciferase gene) in MT-2 cells. Description: Inhibition of HIV replication (NL-Rluc luciferase reporter virus, MT-2 cells). The class given is cell-based, human immunodeficiency virus (HIV). Conditions: NL43, 120 h, read-out: Activity.
In the case of `Cc1nc2cc(-c3ccc4c(c3)CCCC4)nn2c(-c2cc(F)c3c(c2C)CCCO3)c1[C@H](OC(C)(C)C)C(=O)O` [Example 150, (2S)-2-(tert-Butoxy)-2-(7-(8-fluoro-5-methylchroman-6-yl)-5-methyl-2-(5,6,7,8-tetrahydronaphthalen-2-yl)pyrazolo[1,5-a]pyrimidin-6-yl)acetic acid], the EC50 is under 100 nM.
The same measure for `Cc1nc2cc(-c3ccc4c(c3)CCCC4)nn2c(-c2ccc3c(c2)CCCO3)c1[C@H](OC(C)(C)C)C(=O)O` [Example 151, (S)-2-(tert-Butoxy)-2-(7-(chroman-6-yl)-5-methyl-2-(5,6,7,8-tetrahydronaphthalen-2-yl)pyrazolo[1,5-a]pyrimidin-6-yl)acetic acid]: under 100 nM; for `Cc1nc2cc(-c3ccc4c(c3)CCCC4)nn2c(-c2ccc(F)cc2)c1[C@H](OC(C)(C)C)C(=O)O` [Example 152, (S)-2-(tert-Butoxy)-2-(7-(4-fluorophenyl)-5-methyl-2-(5,6,7,8-tetrahydronaphthalen-2-yl)pyrazolo[1,5-a]pyrimidin-6-yl)acetic acid]: over 1000 nM.
Take `Cc1ccc(-c2c([C@H](OC(C)(C)C)C(=O)O)c(C)nc3cc(-c4ccc5c(c4)CCCC5)nn23)cc1` [Example 153, (S)-2-(tert-Butoxy)-2-(5-methyl-2-(5,6,7,8-tetrahydronaphthalen-2-yl)-7-(p-tolyl)pyrazolo[1,5-a]pyrimidin-6-yl)acetic acid]: the EC50 was 100 to 1000 nM.
Next, `Cc1nc2cc(-c3ccc4c(c3)CCCC4)nn2c(-c2ccc3c4c(ccnc24)CCO3)c1[C@H](OC(C)(C)C)C(=O)O` [Example 154, (2S)-2-(tert-Butoxy)-2-(7-(2,3-dihydropyrano[4,3,2-de]quinolin-7-yl)-5-methyl-2-(5,6,7,8-tetrahydronaphthalen-2-yl)pyrazolo[1,5-a]pyrimidin-6-yl)acetic acid]: over 1000 nM; `Cc1nc2cc(-c3ccc4c(c3)CCCC4)nn2c(-c2ccc(Cl)cc2)c1[C@H](OC(C)(C)C)C(=O)O` [Example 155, (S)-2-(tert-Butoxy)-2-(7-(4-chlorophenyl)-5-methyl-2-(5,6,7,8-tetrahydronaphthalen-2-yl)pyrazolo[1,5-a]pyrimidin-6-yl)acetic acid]: 100 to 1000 nM; `Cc1ccc(-c2c([C@H](OC(C)(C)C)C(=O)O)c(C)nc3cc(-c4ccc5c(c4)CCCC5)nn23)c(Cl)c1` [Example 156, (2S)-2-(tert-Butoxy)-2-(7-(2-chloro-4-methylphenyl)-5-methyl-2-(5,6,7,8-tetrahydronaphthalen-2-yl)pyrazolo[1,5-a]pyrimidin-6-yl)acetic acid]: over 1000 nM.
Consider `Cc1nc2cc(-c3ccc4c(c3)CCCC4)nn2c(-c2ccc(Cl)cc2F)c1[C@H](OC(C)(C)C)C(=O)O` [Example 157, (2S)-2-(tert-Butoxy)-2-(7-(4-chloro-2-fluorophenyl)-5-methyl-2-(5,6,7,8-tetrahydronaphthalen-2-yl)pyrazolo[1,5-a]pyrimidin-6-yl)acetic acid], for which the EC50 fell in the range of 100 to 1000 nM.
Next, `Cc1nc2c(C)c(-c3cccc(Cl)c3)nn2c(-c2cc(F)c3c(c2C)CCCO3)c1[C@H](OC(C)(C)C)C(=O)O` [Example 158, (2S)-2-(tert-Butoxy)-2-(2-(3-chlorophenyl)-7-(8-fluoro-5-methylchroman-6-yl)-3,5-dimethylpyrazolo[1,5-a]pyrimidin-6-yl)acetic acid]: 100 to 1000 nM; `Cc1nc2c(C)c(-c3cccc(-c4cc(F)c5c(c4C)CCCO5)c3)nn2c(-c2cc(F)c3c(c2C)CCCO3)c1[C@H](OC(C)(C)C)C(=O)O` [Example 159, (2S)-2-(tert-Butoxy)-2-(7-(8-fluoro-5-methylchroman-6-yl)-2-(3-(8-fluoro-5-methylchroman-6-yl)phenyl)-3,5-dimethylpyrazolo[1,5-a]pyrimidin-6-yl)acetic acid]: under 100 nM.
